Experimental data published in ChEMBL document CHEMBL1154736, “Increasing selectivity of CC chemokine receptor 8 antagonists by engineering nondesolvation related interactions with the intended and off-target binding sites” (J Med Chem, 2009).

Legend:
[1] = target: Voltage-gated inwardly rectifying potassium channel KCNH2 (Homo sapiens, UniProt Q12809, F656M); assay: Inhibition of human recombinant ERG F656M mutant expressed in CHOK1 cells by whole-cell plate-based electrophysiology; conditions: cho-k1
[2] = target: Voltage-gated inwardly rectifying potassium channel KCNH2 (Homo sapiens, UniProt Q12809, S624T); assay: Inhibition of human recombinant ERG S624T mutant expressed in CHOK1 cells by whole-cell plate-based electrophysiology; conditions: cho-k1
[3] = Apparent n-Octanol-water partition coefficient, log D at pH 7.4 by HPLC analysis
[4] = target: Voltage-gated inwardly rectifying potassium channel KCNH2 (Homo sapiens, UniProt Q12809, F656W); assay: Inhibition of human recombinant ERG F656W mutant expressed in CHOK1 cells by whole-cell plate-based electrophysiology; conditions: cho-k1
[5] = target: T1, Voltage-gated inwardly rectifying potassium channel KCNH2 (Homo sapiens, UniProt Q12809); assay: Displacement of [3H]dofetilide from human recombinant ERG expressed in HEK293 cells by patch clamp method
[6] = target: Voltage-gated inwardly rectifying potassium channel KCNH2 (Homo sapiens, UniProt Q12809, S624A); assay: Inhibition of human recombinant ERG S624A mutant expressed in CHOK1 cells by whole-cell plate-based electrophysiology; conditions: cho-k1
[7] = target: Voltage-gated inwardly rectifying potassium channel KCNH2 (Homo sapiens, UniProt Q12809, Y652A); assay: Inhibition of human recombinant ERG Y652A mutant expressed in CHOK1 cells by whole-cell plate-based electrophysiology; conditions: cho-k1
[8] = target: C-C chemokine receptor type 8 (Homo sapiens, UniProt P51685); assay: Antagonist activity at human CCR8; format: functional
[9] = target: Voltage-gated inwardly rectifying potassium channel KCNH2 (Homo sapiens, UniProt Q12809, F656T); assay: Inhibition of human recombinant ERG F656T mutant expressed in CHOK1 cells by whole-cell plate-based electrophysiology; conditions: cho-k1
[10] = target: Voltage-gated inwardly rectifying potassium channel KCNH2 (Homo sapiens, UniProt Q12809, T623S); assay: Inhibition of human recombinant ERG T623S mutant expressed in CHOK1 cells by whole-cell plate-based electrophysiology; conditions: cho-k1
[11] = target: Voltage-gated inwardly rectifying potassium channel KCNH2 (Homo sapiens, UniProt Q12809, Y652F); assay: Inhibition of human recombinant ERG Y652F mutant expressed in CHOK1 cells by whole-cell plate-based electrophysiology; conditions: cho-k1
[12] = target: T1, Voltage-gated inwardly rectifying potassium channel KCNH2; assay: Inhibition of wild type human ERG expressed in CHOK1 cells by whole-cell plate-based electrophysiology

Chain of C-C chemokine receptor type 8 (P51685 whole entry): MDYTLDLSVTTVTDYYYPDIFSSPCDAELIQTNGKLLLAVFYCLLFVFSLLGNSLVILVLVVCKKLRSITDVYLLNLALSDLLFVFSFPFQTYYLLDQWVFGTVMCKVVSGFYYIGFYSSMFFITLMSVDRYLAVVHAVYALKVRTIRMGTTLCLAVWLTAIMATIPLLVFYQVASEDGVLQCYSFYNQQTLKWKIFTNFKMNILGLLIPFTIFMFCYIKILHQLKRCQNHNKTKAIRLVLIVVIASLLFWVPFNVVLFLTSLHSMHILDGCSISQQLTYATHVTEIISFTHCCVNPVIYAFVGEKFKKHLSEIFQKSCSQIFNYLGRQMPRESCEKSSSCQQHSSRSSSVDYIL

| logD [3] | IC50 [8] | Structure (SMILES) | delta pIC50 wt-mutant [1] | delta pIC50 wt-mutant [2] | delta pIC50 wt-mutant [4] | IC50 [5] | delta pIC50 wt-mutant [6] | delta pIC50 wt-mutant [7] | delta pIC50 wt-mutant [9] | delta pIC50 wt-mutant [10] | delta pIC50 wt-mutant [11] | IC50 [12] |
| --- | --- | --- | --- | --- | --- | --- | --- | --- | --- | --- | --- | --- |
| 1.3 | 8.13 nM | CC1(C)Cc2c(CN3CCC4(CC3)CCN(C(=O)c3ccc(N)cn3)CC4)cccc2O1 | -0.22 | 0.31 | -0.66 | 12900 nM | 0.79 | 1.23 | 0.2 | 0.49 | 0.68 | 16600 nM |
| 1.5 | 5.62 nM | CC1(C)C=Cc2cccc(CN3CCC4(CC3)CCN(C(=O)c3ccnc(N)c3)CC4)c2O1 | 0.37 | -0.62 | -0.75 | – | 0.48 | 0.93 | 1.32 | 0.2 | 0.04 | – |
| 1.2 | 6.61 nM | CC1(C)Oc2cccc(CN3CCC4(CC3)CCN(C(=O)c3ccnc(N)c3)CC4)c2O1 | 0.62 | -0.33 | -0.39 | 759 nM | 0.59 | 1.22 | 1.37 | -0.06 | -0.19 | 16600 nM |
| 2.3 | 2.63 nM | CC1(C)Oc2c(CN3CCC4(CC3)CCN(C(=O)c3ccc(N)cn3)CC4)cccc2C1(F)F | -0.49 | -0.62 | -1.07 | 47900 nM | 0.36 | 0.87 | -0.17 | 0.01 | 0.02 | 30900 nM |
| 1.6 | 30.9 nM | CC1(C)Cc2c(CN3CCC4(CC3)CCN(C(=O)c3ccncc3)CC4)cccc2O1 | – | – | – | 30200 nM | – | – | – | – | – | 7080 nM |
| 1.4 | 22.4 nM | CC1(C)Cc2cccc(CN3CCC4(CC3)CCN(C(=O)c3ncccc3N)CC4)c2O1 | -0.26 | 0.43 | -0.32 | 32400 nM | 1.32 | 1.81 | 0.77 | 0.41 | 0.64 | 4170 nM |
| 1.4 | 22.4 nM | CC1(C)Cc2c(CN3CCC4(CC3)CCN(C(=O)c3ccnc(N)c3)CC4)cccc2O1 | 0.14 | -0.58 | -0.61 | 17000 nM | 0.55 | 0.89 | 1.32 | 0.01 | -0.37 | 28800 nM |

Second part, the compound before the results:

| Structure (SMILES) | logD [3] | IC50 [8] | delta pIC50 wt-mutant [1] | delta pIC50 wt-mutant [2] | delta pIC50 wt-mutant [4] | IC50 [5] | delta pIC50 wt-mutant [6] | delta pIC50 wt-mutant [7] | delta pIC50 wt-mutant [9] | delta pIC50 wt-mutant [10] | delta pIC50 wt-mutant [11] | IC50 [12] |
| --- | --- | --- | --- | --- | --- | --- | --- | --- | --- | --- | --- | --- |
| O=C(c1ccncc1)N1CCC2(CCN(Cc3ccccc3OC(F)(F)C(F)F)CC2)CC1 | 2.8 | 525 nM | 0.48 | -0.08 | -0.54 | 17000 nM | 0.11 | 1 | 1.42 | 0.06 | -0.32 | 5130 nM |
| CC(C)(C)C1(C)Cc2c(CN3CCC4(CC3)CCN(C(=O)c3ccc(N)cn3)CC4)cccc2O1 (stereo not given) | 2.6 | 2.82 nM | – | – | – | – | – | – | – | – | – | – |
| COc1ccccc1Oc1cccc(CN2CCC3(CC2)CCN(C(=O)c2ccncn2)CC3)c1 | 1.7 | 4.9 nM | -0.2 | -0.3 | -0.15 | – | 0.67 | 0.98 | 0.58 | 0.44 | -0.29 | 1910 nM |
| CC1Cc2cccc(CN3CCC4(CC3)CCN(C(=O)c3ccncc3)CC4)c2O1 (stereo not given) | – | – | 1.04 | -0.12 | -0.58 | – | 0.61 | 1.63 | 1.41 | 0.24 | -0.21 | – |
| O=C(c1ccncc1)N1CCC2(CCN(Cc3cccc4c3OCC4)CC2)CC1 | 0.3 | 1480 nM | – | – | – | – | – | – | – | – | – | – |
| CCCC1(CC)Cc2c(CN3CCC4(CC3)CCN(C(=O)c3ccc(N)cn3)CC4)cccc2O1 (stereo not given) | 2.5 | 2.4 nM | – | – | – | – | – | – | – | – | – | – |
| CC1(C)CCc2cc(CN3CCC4(CC3)CCN(C(=O)c3ccc(N)cn3)CC4)ccc2O1 | 1.1 | 95.5 nM | -0.66 | -0.28 | -0.35 | 32400 nM | 1.09 | 0.83 | -0.09 | 0.24 | 0.47 | 19500 nM |
| C=C(C)COc1ccccc1CN1CCC2(CC1)CCN(C(=O)c1ccncc1)CC2 | 1.6 | 70.8 nM | – | – | – | – | – | – | – | – | – | – |
| CC1(C)CCc2cc(CN3CCC4(CC3)CCN(C(=O)c3ccncn3)CC4)ccc2O1 | 0.9 | 1820 nM | -0.3 | -0.39 | -0.14 | – | 0.74 | 0.82 | 0.46 | 0.39 | 0.11 | 11200 nM |
| COc1ccccc1Oc1ccccc1CN1CCC2(CC1)CCN(C(=O)c1ccncc1)CC2 | – | 11.5 nM | – | – | – | – | – | – | – | – | – | – |
| CC(C)COc1ccccc1CN1CCC2(CC1)CCN(C(=O)c1ccncc1)CC2 | 1.8 | 107 nM | – | – | – | – | – | – | – | – | – | – |
| CC(C)COc1ccccc1CN1CCC2(CC1)CCN(C(=O)c1ccncn1)CC2 | -0.11 | 141 nM | 0.21 | 0.12 | -0.42 | 19100 nM | 0.51 | 0.7 | 1.65 | 0.22 | -0.42 | 4900 nM |
| O=C(c1ccncn1)N1CCC2(CCN(Cc3ccccc3Oc3ccccc3)CC2)CC1 | 2 | 141 nM | – | – | – | – | – | – | – | – | – | – |
| COc1ccccc1Oc1ccccc1CN1CCC2(CC1)CCN(C(=O)c1ccncn1)CC2 | 1.2 | 14.8 nM | – | – | – | – | – | – | – | – | – | – |
